Data taken from patent US20230107642A1 (Erasca, Inc., priority 2020, published 2023).

Molecular target: T1, K-Ras G12C (Homo sapiens, UniProt P01116, G12C)
T1 construct: This protein contained 188 amino acids in total, including an N-terminal 6-Histidine tag; made in house; host or cells: E. coli BL21
Assay: CAF assay (% CAF; method in Example 7, not in this part)
Assay type: binding
Conditions: 10 uM compound, 1 h incubation

C=CC(=O)N1CCN(c2nc(=O)n3c4c(c(-c5ccc(F)cc5F)c(C(F)(F)F)cc24)SC[C@@H]3CC2CCOCC2)[C@@H](C)C1 [Example 437, (3S)-7-((S)-4-acryloyl-2-methylpiperazin-1-yl)-10-(2,4-difluorophenyl)-3-((tetrahydro-2H-pyran-4-yl)methyl)-9-(trifluoromethyl)-2H-[1,4]thiazino[2,3,4-ij]quinazolin-5(3H)-one]
% CAF @ 10 uM, 1h: 95.7%

C=CC(=O)N1CCN(c2nc(=O)n3c4c(c(-c5ccc(F)cc5F)c(Cl)cc24)SC[C@@H]3CC2CCOCC2)[C@@H](C)C1 [Example 438, (3S)-7-((S)-4-acryloyl-2-methylpiperazin-1-yl)-9-chloro-10-(2,4-difluorophenyl)-3-((tetrahydro-2H-pyran-4-yl)methyl)-2H-[1,4]thiazino[2,3,4-ij]quinazolin-5(3H)-one]
% CAF @ 10 uM, 1h: 92.8%

O=C1CC2CN(c3nc(=O)n4c5c(c(-c6ccc(F)cc6F)c(C(F)(F)F)cc35)SCC4)CC(C1)N2C(=O)/C=C/C(F)F [Example 439, (E)-7-(9-(4,4-difluorobut-2-enoyl)-7-oxo-3,9-diazabicyclo[3.3.1]nonan-3-yl)-10-(2,4-difluorophenyl)-9-(trifluoromethyl)-2,3-dihydro-5H-[1,4]thiazino[2,3,4-ij]quinazolin-5-one]
% CAF @ 10 uM, 1h: 97%

O=C1CC2CN(c3nc(=O)n4c5c(c(-c6ccc(F)cc6F)c(C(F)(F)F)cc35)SCC4)CC(C1)N2C(=O)/C=C/C(F)(F)F [Example 440, (E)-10-(2,4-difluorophenyl)-7-(7-oxo-9-(4,4,4-trifluorobut-2-enoyl)-3,9-diazabicyclo[3.3.1]nonan-3-yl)-9-(trifluoromethyl)-2,3-dihydro-5H-[1,4]thiazino[2,3,4-ij]quinazolin-5-one]
% CAF @ 10 uM, 1h: 96%

C=CC(=O)N1CCN(c2nc(=O)n3c4c(c(-c5ccc(F)c6cccnc56)c(Cl)cc24)SCC3)[C@@H](C)C1 [Example 441, 7-((S)-4-acryloyl-2-methylpiperazin-1-yl)-9-chloro-10-(5-fluoroquinolin-8-yl)-2,3-dihydro-5H-[1,4]thiazino[2,3,4-ij]quinazolin-5-one]
% CAF @ 10 uM, 1h: 78.5%

C=CC(=O)N1CCN(c2nc(=O)n3c4c(c(-c5ccc(F)cc5F)c(C(F)(F)F)cc24)S[C@@H](CN(C)C)C3)[C@@H](C)C1 [Example 442, (2S)-7-((S)-4-acryloyl-2-methylpiperazin-1-yl)-10-(2,4-difluorophenyl)-2-((dimethylamino)methyl)-9-(trifluoromethyl)-2,3-dihydro-5H-[1,4]thiazino[2,3,4-ij]quinazolin-5-one]
% CAF @ 10 uM, 1h: 87%

C=CC(=O)N1C[C@H](C)N(c2nc(=O)n3c4c(c(-c5cc(F)c(F)cc5F)c(C(F)(F)F)cc24)SC[C@@H]3CN2CCN(CC(F)F)CC2)C[C@H]1C [Example 443, (3S)-7-((2S,5R)-4-acryloyl-2,5-dimethylpiperazin-1-yl)-3-((4-(2,2-difluoroethyl)piperazin-1-yl)methyl)-9-(trifluoromethyl)-10-(2,4,5-trifluorophenyl)-2H-[1,4]thiazino[2,3,4-ij]quinazolin-5(3H)-one]
% CAF @ 10 uM, 1h: 48.2%

C=CC(=O)N1CCN(c2nc(=O)n3c4c(c(-c5ccc(F)cc5)c(Cl)cc24)SC[C@@H]3CN2CCn3c(nnc3C(F)(F)F)C2)[C@@H](C)C1 [Example 444, (S)-7-((S)-4-acryloyl-2-methylpiperazin-1-yl)-9-chloro-10-(4-fluorophenyl)-3-((3-(trifluoromethyl)-5,6-dihydro-[1,2,4]triazolo[4,3-a]pyrazin-7(8H)-yl)methyl)-2H-[1,4]thiazino[2,3,4-ij]quinazolin-5(3H)-one]
% CAF @ 10 uM, 1h: 24.1%

C=CC(=O)N1C[C@H](C)N(c2nc(=O)n3c4c(c(-c5ccc(F)cc5)c(Cl)cc24)SC[C@@H]3CN2CCn3c(nnc3C(F)(F)F)C2)C[C@H]1C [Example 445, (S)-7-((2S,5R)-4-acryloyl-2,5-dimethylpiperazin-1-yl)-9-chloro-10-(4-fluorophenyl)-3-((3-(trifluoromethyl)-5,6-dihydro-[1,2,4]triazolo[4,3-a]pyrazin-7(8H)-yl)methyl)-2H-[1,4]thiazino[2,3,4-ij]quinazolin-5(3H)-one]
% CAF @ 10 uM, 1h: 68.2%

C=CC(=O)N1CCN(c2nc(=O)n3c4c(c(-c5cc(Cl)c(F)cc5F)c(Cl)cc24)SC[C@@H]3COCOC)[C@@H](C)C1 [Example 446, (3S)-7-((S)-4-acryloyl-2-methylpiperazin-1-yl)-9-chloro-10-(5-chloro-2,4-difluorophenyl)-3-((methoxymethoxy)methyl)-2H-[1,4]thiazino[2,3,4-ij]quinazolin-5(3H)-one]
% CAF @ 10 uM, 1h: 38%

C=CC(=O)N1CCN(c2nc(=O)n3c4c(c(-c5cc(Cl)c(F)cc5F)c(Cl)cc24)SC[C@@H]3CN2CCn3c(nnc3C(F)(F)F)C2)[C@@H](C)C1 [Example 447, (3S)-7-((S)-4-acryloyl-2-methylpiperazin-1-yl)-9-chloro-10-(5-chloro-2,4-difluorophenyl)-3-((3-(trifluoromethyl)-5,6-dihydro-[1,2,4]triazolo[4,3-a]pyrazin-7(8H)-yl)methyl)-2H-[1,4]thiazino[2,3,4-ij]quinazolin-5(3H)-one]
% CAF @ 10 uM, 1h: 63.3%

C=CC(=O)N1C[C@H](C)N(c2nc(=O)n3c4c(c(-c5cc(Cl)c(F)cc5F)c(Cl)cc24)SC[C@@H]3CN2CCn3c(nnc3C(F)(F)F)C2)C[C@H]1C [Example 448, (3S)-7-((2S,5R)-4-acryloyl-2,5-dimethylpiperazin-1-yl)-9-chloro-10-(5-chloro-2,4-difluorophenyl)-3-((3-(trifluoromethyl)-5,6-dihydro-[1,2,4]triazolo[4,3-a]pyrazin-7(8H)-yl)methyl)-2H-[1,4]thiazino[2,3,4-ij]quinazolin-5(3H)-one]
% CAF @ 10 uM, 1h: 55%

C=CC(=O)N1C[C@H](C)N(c2nc(=O)n3c4c(c(-c5cc(Cl)c(F)cc5F)c(Cl)cc24)SC[C@@H]3CN2CCC3(CC2)COC3)C[C@H]1C [Example 449, (3S)-3-(2-oxa-7-azaspiro[3.5]nonan-7-ylmethyl)-7-((2S,5R)-4-acryloyl-2,5-dimethylpiperazin-1-yl)-9-chloro-10-(5-chloro-2,4-difluorophenyl)-2H-[1,4]thiazino[2,3,4-ij]quinazolin-5(3H)-one]
% CAF @ 10 uM, 1h: 51.6%

C=CC(=O)N1CCN(c2nc(=O)n3c4c(c(-c5ccc(F)cc5F)c(C(F)(F)F)cc24)SCCC3)[C@@H](C)C1 [Example 450, 8-((S)-4-acryloyl-2-methylpiperazin-1-yl)-11-(2,4-difluorophenyl)-10-(trifluoromethyl)-3,4-dihydro-2H,6H-[1,4]thiazepino[2,3,4-ij]quinazolin-6-one]
% CAF @ 10 uM, 1h: 61%

C=C(F)C(=O)N1C2CC(=O)CC1CN(c1nc(=O)n3c4c(c(-c5ccc(F)cc5F)c(C(F)(F)F)cc14)SCCC3)C2 [Example 451, 11-(2,4-difluorophenyl)-8-(9-(2-fluoroacryloyl)-7-oxo-3,9-diazabicyclo[3.3.1]nonan-3-yl)-10-(trifluoromethyl)-3,4-dihydro-2H,6H-[1,4]thiazepino[2,3,4-ij]quinazolin-6-one]
% CAF @ 10 uM, 1h: 61%

C/C=C/C(=O)N1C2CC(=O)CC1CN(c1nc(=O)n3c4c(c(-c5ccc(F)cc5F)c(C(F)(F)F)cc14)SCC3)C2 [Example 452, (E)-7-(9-(but-2-enoyl)-7-oxo-3,9-diazabicyclo[3.3.1]nonan-3-yl)-10-(2,4-difluorophenyl)-9-(trifluoromethyl)-2,3-dihydro-5H-[1,4]thiazino[2,3,4-ij]quinazolin-5-one]
% CAF @ 10 uM, 1h: 63%

CC#CC(=O)N1C2CC(=O)CC1CN(c1nc(=O)n3c4c(c(-c5ccc(F)cc5F)c(C(F)(F)F)cc14)SCC3)C2 [Example 453, 7-(9-(but-2-ynoyl)-7-oxo-3,9-diazabicyclo[3.3.1]nonan-3-yl)-10-(2,4-difluorophenyl)-9-(trifluoromethyl)-2,3-dihydro-5H-[1,4]thiazino[2,3,4-ij]quinazolin-5-one]
% CAF @ 10 uM, 1h: 37%

C=CC(=O)N1CCN(c2nc(=O)n3c4c(c(-c5ccc(F)cc5F)c(C(F)(F)F)cc24)SC[C@@H](N(C)CC(F)(F)F)C3)[C@@H](C)C1 [Example 454, (3S)-8-((S)-4-acryloyl-2-methylpiperazin-1-yl)-11-(2,4-difluorophenyl)-3-(methyl(2,2,2-trifluoroethyl)amino)-10-(trifluoromethyl)-3,4-dihydro-2H,6H-[1,4]thiazepino[2,3,4-ij]quinazolin-6-one]
% CAF @ 10 uM, 1h: 61%

C=CC(=O)N1CCN(c2nc(=O)n3c4c(c(-c5c(F)cc(F)cc5F)c(C(F)(F)F)cc24)SCCC3)[C@@H](C)C1 [Example 455, (S)-8-(4-acryloyl-2-methylpiperazin-1-yl)-10-(trifluoromethyl)-11-(2,4,6-trifluorophenyl)-3,4-dihydro-2H,6H-[1,4]thiazepino[2,3,4-ij]quinazolin-6-one]
% CAF @ 10 uM, 1h: 21%

C=CC(=O)N1CCN(c2nc(=O)n3c4c(c(-c5cc(Cl)c(F)cc5F)c(Cl)cc24)SC[C@@H]3CN2CCC3(CC2)COC3)[C@@H](C)C1 [Example 456, (3S)-3-(2-oxa-7-azaspiro[3.5]nonan-7-ylmethyl)-7((S)-4-acryloyl-2-methylpiperazin-1-yl)-9-chloro-10-(5-chloro-2,4-difluorophenyl)-2H-[1,4]thiazino[2,3,4-ij]quinazolin-5(3H)-one]
% CAF @ 10 uM, 1h: 77.6%

C=CC(=O)N1CCN(c2nc(=O)n3c4c(c(-c5cc(Cl)c(F)cc5F)c(Cl)cc24)SC[C@@H]3CN2CCN(C3CC3)CC2)[C@@H](C)C1 [Example 458, (3S)-7-((S)-4-acryloyl-2-methylpiperazin-1-yl)-9-chloro-10-(5-chloro-2,4-difluorophenyl)-3-((4-cyclopropylpiperazin-1-yl)methyl)-2H-[1,4]thiazino[2,3,4-ij]quinazolin-5(3H)-one]
% CAF @ 10 uM, 1h: 55.6%

C=CC(=O)N1C[C@H](C)N(c2nc(=O)n3c4c(c(-c5cc(F)c(F)cc5F)c(Cl)cc24)SC[C@@H]3CN2CCn3c(nnc3C(F)(F)F)C2)C[C@H]1C [Example 459, (3S)-7-((2S,5R)-4-acryloyl-2,5-dimethylpiperazin-1-yl)-9-chloro-3-((3-(trifluoromethyl)-5,6-dihydro-[1,2,4]triazolo[4,3-a]pyrazin-7(8H)-yl)methyl)-10-(2,4,5-trifluorophenyl)-2H-[1,4]thiazino[2,3,4-ij]quinazolin-5(3H)-one]
% CAF @ 10 uM, 1h: 82.2%
